Source: patent US7923465B2, “Cannabinoid receptor ligands, pharmaceutical compositions containing them, and process for their preparation” (priority 2005, dated 2011)
Like-named read-outs stand apart in the source and are kept apart here.

Tests used:
hCB2 = hCB2 (Homo sapiens, UniProt P34972); experiment: In vitro binding assay using hCB2-CHO membranes, [3H]-CP-55,940 displacement (Protocol IV); parameters: expressed in transfected cells; host or cells: CHO (hCB2-CHO, generated in-house); settings: 1 h, read-out: % Displacement Protocol IV
Sequence of hCB2 (P34972 whole entry): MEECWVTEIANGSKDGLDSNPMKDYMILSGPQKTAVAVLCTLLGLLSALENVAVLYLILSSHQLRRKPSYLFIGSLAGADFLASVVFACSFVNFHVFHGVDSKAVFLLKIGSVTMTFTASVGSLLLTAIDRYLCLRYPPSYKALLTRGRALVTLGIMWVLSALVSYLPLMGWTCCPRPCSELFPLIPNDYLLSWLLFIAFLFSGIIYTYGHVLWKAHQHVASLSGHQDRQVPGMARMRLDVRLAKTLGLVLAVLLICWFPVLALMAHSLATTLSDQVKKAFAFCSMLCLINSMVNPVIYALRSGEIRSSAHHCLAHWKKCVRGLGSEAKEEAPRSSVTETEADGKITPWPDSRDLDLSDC
Procedure, shortened: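 Displacement of [3H]-CP-55,940 (0.75 nM) from membranes of CHO cells expressing human CB2 (25-50 μg) was measured in Tris-BSA buffer pH 7.4 with 5 mM MgCl2, 1 mM EDTA, 0.1% BSA, 1 h at 30 °C. Test compounds were at 300 nM final; nonspecific binding defined with 0.5 μM CP-55,940. Values are % displacement of specific binding.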

CB1 = CB1 (Rattus norvegicus, UniProt P20272); experiment: Rat CB1 receptor binding using brain membrane, [3H]SR141716A displacement (Protocol I); parameters: CB1 receptor present in a rat brain membrane preparation; from tissue; host or cells: rat brain membrane; inhibition: dose or concentration left out as unconfirmed; settings: 1 h
Sequence of CB1 (P20272 whole entry): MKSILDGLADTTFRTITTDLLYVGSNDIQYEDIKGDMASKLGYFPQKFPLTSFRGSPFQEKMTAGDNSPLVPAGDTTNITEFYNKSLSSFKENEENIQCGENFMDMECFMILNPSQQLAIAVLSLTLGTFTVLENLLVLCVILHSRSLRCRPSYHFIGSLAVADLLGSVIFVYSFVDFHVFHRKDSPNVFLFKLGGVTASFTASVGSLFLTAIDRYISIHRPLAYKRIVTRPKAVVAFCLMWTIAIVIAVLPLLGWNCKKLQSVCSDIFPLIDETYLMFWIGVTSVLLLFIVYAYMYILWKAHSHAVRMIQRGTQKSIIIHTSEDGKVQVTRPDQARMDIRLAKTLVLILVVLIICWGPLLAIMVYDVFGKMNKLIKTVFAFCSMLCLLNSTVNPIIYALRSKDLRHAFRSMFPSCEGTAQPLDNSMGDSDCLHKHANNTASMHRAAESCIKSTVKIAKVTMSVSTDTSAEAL
Method: I. In Vitro Protocol for Rat CB1 Receptor Binding Using Brain Membrane
In this assay, [^3H]SR141716A (5-(4-chlorophenyl)-1-(2,4-dichlorophenyl)-4-methyl-N-(1-piperidyl)pyrazole-3-carboxamide) was used to bind the CB1 receptor present in a rat brain membrane preparation which can be displaced by unlabeled ligands having affinity to the CB1 receptor.
The assay was performed according to the modified method of Thomas et al., 1998 (JPET 285: 285-292). The total reaction mixture ([…]) contained Tris-BSA buffer (50 mM Tris, pH 7.4 with 1.5% BSA) or unlabeled SR141716A […] or test samples […], [^3H] SR141716A (2 nM) and […] of rat brain membrane. The non-specific binding was defined by […] of SR141716A. The assay mixture was incubated at 37° C. for 1 hour. The reaction was then stopped by rapid filtration under vacuum using Whatman GF/B-96 micro filter plate. A scintillation cocktail was added and radioactive counts were measured using a Topcount beta scintillation counter.
The standard and test sample dilutions were made in an assay buffer containing either ethanol or DMSO at a final concentration of 1%.
The percent (%) displacement by a test ligand was calculated by comparing the specific bound values.

[1] = hCB2-CHO membranes, [3H]-CP-55,940 displacement
[2] = rat brain membrane, [3H]SR141716A displacement, read-out: % Displacement Protocol I

| Structure (SMILES) | melting point | inhibition at 0.3 µM (hCB2; [1]) | inhibition (CB1; [2]) | inhibition at 0.3 µM (hCB2) | inhibition (CB1; read-out: % Displacement Protocol I, rat brain membrane, [3H]SR141716A displacement) |
| --- | --- | --- | --- | --- | --- |
| O=C(NNc1ccccc1)c1nn(-c2ccccc2Cl)c2c1C1CCC2C1 (stereo not drawn) [Example 208, N(3)-Phenylamino-1-(2-chlorophenyl)-4,5,6,7-tetrahydro-1H-4,7-methano-indazole-3-carboxamide] | 205 °C | 0% | -1.2% |  |  |
| O=C(NCc1ccccc1)c1nn(-c2ccccc2Br)c2c1C1CCC2C1 (stereo not drawn) [Example 272, N(3)-Benzyl-1-(2-bromophenyl)-4,5,6,7-tetrahydro-1H-4,7-methano-indazole-3-carboxamide] | 110 °C | 18.4% | -4.5% |  |  |
| O=C(NCc1ccccc1)c1nn(-c2ccc(Cl)cc2)c2c1C1CCC2C1 (stereo not drawn) [Example 220, N(3)-Benzyl-1-(4-chlorophenyl)-4,5,6,7-tetrahydro-1H-4,7-methano-indazole-3-carboxamide] | 112 to 115 °C | 25.3% | 29.5% |  |  |
| O=C(NNc1ccccc1)c1nn(-c2ccc(Cl)cc2)c2c1C1CCC2C1 (stereo not drawn) [Example 228, N(3)-Phenylamino-1-(4-chlorophenyl)-4,5,6,7-tetrahydro-1H-4,7-methano-indazole-3-carboxamide] | 138 to 141 °C | 9.4% | 16.1% |  |  |
| O=C(NNc1ccc(Cl)cc1)c1n[nH]c2c1C1(c3ccc(Cl)cc3)CCC2C1 (stereo not drawn) [Example 229, N(3)-[(4-Chlorophenyl)amino]-4-(4-chlorophenyl)-4,5,6,7-tetrahydro-1H-4,7-methano-indazole-3-carboxamide] | 202 to 205 °C | 24.6% | 47.1% |  |  |
| O=C(NNc1ccc(Cl)cc1Cl)c1nn(-c2ccc(Cl)cc2Cl)c2c1C1CC3CC(C1)CC2C3 [Example 175, N(7)-(2,4-Dichlorophenylamino)-5-(2,4-dichlorophenyl)-5,6-diazatetracyclo[7.3.1.1^3,11.0^4,8]tetradeca-4(8),6-diene-7-carboxamide] | 153 to 156 °C | 18.5% | 66% |  |  |
| O=C(NNc1ccc(Cl)cn1)c1nn(-c2ccc(Cl)cc2)c2c1C1CC3CC(C1)CC2C3 [Example 135, N(7)-(5-Chloro-2-pyridylamino)-5-(4-chlorophenyl)-5,6-diazatetracyclo[7.3.1.1^3,11.0^4,8]tetradeca-4(8),6-diene-7-carboxamide] | 130 to 135 °C | 6.48% | 20.5% |  |  |
| Cc1ccc(-n2nc(C(=O)NN3CCCCC3)c3c2C2CC4CC(CC3C4)C2)cc1 [Example 160, N(7)-Piperidino-5-(4-methylphenyl)-5,6-diazatetracyclo[7.3.1.1^3,11.0^4,8]tetradeca-4(8),6-diene-7-carboxamide] | 228 to 232 °C | 20.8% | 10% |  |  |
| O=C(NNc1ccccc1Br)c1nn(-c2ccc(Cl)cc2Cl)c2c1C1CC3CC(C1)CC2C3 [Example 176, N(7)-(2-Bromophenylamino)-5-(2,4-dichlorophenyl)-5,6-diazatetracyclo[7.3.1.1^3,11.0^4,8]tetradeca-4(8),6-diene-7-carboxamide] | 196 to 199 °C | 30.5% | 65.6% |  |  |
| O=C(NNc1ccccc1)c1nn(-c2ccc(F)cc2)c2c1C1CCC2C1 (stereo not drawn) [Example 284, N(3)-Phenylamino-1-(4-fluorophenyl)-4,5,6,7-tetrahydro-1H-4,7-methano-indazole-3-carboxamide] | 163 °C | 0.9% | 13.7% |  |  |
| COc1ccc(-n2nc(C(=O)NCc3ccccc3Cl)c3c2C2CC4CC(CC3C4)C2)cc1 [Example 164, N7-(2-Chlorobenzyl)-5-(4-methoxyphenyl)-5,6-diazatetracyclo[7.3.1.1^3,11.0^4,8]tetradeca-4(8),6-diene-7-carboxamide] | 178 °C | 13.2% | 8.2% |  |  |
| O=C(NN(c1ccc(Cl)cc1Cl)C1CCCCC1)c1nn(-c2ccc(Cl)cc2)c2c1C1CC3CC(C1)CC2C3 [Example 129, N(7)-(2,4-Dichlorophenyl-N′-cyclohexylamino)-5-(4-chlorophenyl)-5,6-diazatetracyclo[7.3.1.1^3,11.0^4,8]tetradeca-4(8),6-diene-7-carboxamide] | 95 to 96 °C | 62.9% | 65.2% |  |  |
| O=C(Nn1cnnc1)c1nn(-c2ccc(Cl)cc2Cl)c2c1C1CCC2C1 (stereo not drawn) [Example 240, N(3)-(4H-1,2,4-triazol-4-yl)-1-(2,4-dichlorophenyl)-4,5,6,7-tetrahydro-1H-4,7-methano-indazole-3-carboxamide] | 231 to 233 °C | 7.98% | 1.5% |  |  |
| O=C(NCC1CCCCC1)c1nn(-c2ccc(Cl)cc2)c2c1C1CC3CC(C1)CC2C3 [Example 108, N(7)-Cyclohexylmethyl-5-(4-chlorophenyl)-5,6-diazatetracyclo[7.3.1.1^3,11.0^4,8]tetradeca-4(8),6-diene-7-carboxamide] | 117 °C | 37.1% | 82.5% |  |  |
| O=C(Nc1ccccc1)c1nn(-c2ccc(Cl)cc2)c2c1C1CCC2C1 (stereo not drawn) [Example 214, N(3)-Phenyl-1-(4-chlorophenyl)-4,5,6,7-tetrahydro-1H-4,7-methano-indazole-3-carboxamide] | 137 to 140 °C | 41.3% | 10.1% |  |  |
| O=C(NNc1ccccc1)c1nn(-c2ccccc2Br)c2c1C1CCC2C1 (stereo not drawn) [Example 273, N(3)-Phenylamino-1-(2-bromophenyl)-4,5,6,7-tetrahydro-1H-4,7-methano-indazole-3-carboxamide] | 219 °C | 26.2% | -5.9% |  |  |
| O=C(NCc1ccccc1)c1nn(-c2ccc(Br)cc2)c2c1C1CCC2C1 (stereo not drawn) [Example 276, N(3)-Benzyl-1-(4-bromophenyl)-4,5,6,7-tetrahydro-1H-4,7-methano-indazole-3-carboxamide] | 89 °C | 14.1% | 25.3% |  |  |
| O=C(NC1CCCCC1)c1nn(-c2ccccc2Br)c2c1C1CCC2C1 (stereo not drawn) [Example 271, N(3)-Cyclohexyl-1-(2-bromophenyl)-4,5,6,7-tetrahydro-1H-4,7-methano-indazole-3-carboxamide] | 178 °C |  |  | 46% | 11.7% |
| O=C(NNc1ccccc1)c1nn(-c2ccc(Br)cc2)c2c1C1CCC2C1 (stereo not drawn) [Example 277, N(3)-Phenylamino-1-(4-bromophenyl)-4,5,6,7-tetrahydro-1H-4,7-methano-indazole-3-carboxamide] | 138 °C | 22.1% | -12.8% |  |  |
| O=C(NN1CCCCC1)c1nn(-c2ccccc2)c2c1C1CCC2C1 (stereo not drawn) [Example 201, N(3)-Piperidino-1-phenyl-4,5,6,7-tetrahydro-1H-4,7-methano-indazole-3-carboxamide] | 144 °C | 19.8% | 9% |  |  |
| O=C(NNc1ccc(Cl)c(Cl)c1)c1nn(-c2ccc(Cl)cc2Cl)c2c1C1CCC2C1 (stereo not drawn) [Example 262, N(3)-[(3,4-Dichlorophenyl)amino]-1-(2,4-dichlorophenyl)-4,5,6,7-tetrahydro-1H-4,7-methano-indazole-3-carboxamide] | 176 to 179 °C | 32.6% | -1.6% |  |  |
| O=C(NCc1ccccc1)c1nn(-c2ccccc2Br)c2c1C1CC3CC(C1)CC2C3 [Example 102, N(7)-Benzyl-5-(2-bromophenyl)-5,6-diazatetracyclo[7.3.1.1^3,11.0^4,8]tetradeca-4(8),6-diene-7-carboxamide] | 20 °C | 0.74% | 27.3% |  |  |
| COc1ccc(-n2nc(C(=O)NNc3ccc(Cl)cc3Cl)c3c2C2CC4CC(CC3C4)C2)cc1 [Example 165, N(7)-(2,4-Dichlorophenylamino)-5-(4-methoxyphenyl)-5,6-diazatetracyclo[7.3.1.1^3,11.0^4,8]tetradeca-4(8),6-diene-7-carboxamide] | 199 °C | 45.3% | 14.2% |  |  |
| O=C(NNc1ccc(Cl)cc1)c1nn(-c2ccc(Cl)cc2Cl)c2c1C1CCC2C1 (stereo not drawn) [Example 259, N(3)-[(4-Chlorophenyl)amino]-1-(2,4-dichlorophenyl)-4,5,6,7-tetrahydro-1H-4,7-methano-indazole-3-carboxamide] | 141 to 144 °C | 33.3% | 18.3% |  |  |
